The values below come from patent US9249132B2, “Substituted bicyclic aromatic compounds as S-nitrosoglutathione reductase inhibitors” (Nivalis Therapeutics, Inc., priority 2010, dated 2016).

pIC50: −log10 of the molar value.

In test [1] the test system is dextran sodium sulfate (DSS)-induced IBD. In words: Chronic treatment model of DSS-induced IBD. Format: in vivo, mouse. From the text:
Acute and chronic models of dextran sodium sulfate (DSS)-induced IBD in mice were used to explore efficacy of GSNORi against this disease. Acute and chronic DSS-induced IBD are widely used and well characterized models that induce pathological changes in the colon similar to those observed in the human disease. In these models and in human disease, epithelial cells within the crypts of the colon are disrupted, leading to dysfunction of the epithelial barrier and the ensuing tissue inflammation, edema, and ulceration. GSNORi therapy may benefit IBD by restoring s-nitrosoglutathione (GSNO) levels, and thus prevent or reverse the epithelial barrier dysfunction.
Experimental IBD was induced by administration of DSS in the drinking water of male C57B1/6 mice (N=10 to 12 mice per group) for 6 consecutive days. GSNORi was dosed orally at doses of 10 mg/kg/day for 14 days starting one day after cessation of DSS exposure. Efficacy of GSNORi was assessed in a blinded fashion via endoscopy after 7 days and 14 days of GSNORi dosing and via histopathology after 14 days of GSNORi dosing using a five point scale ranging from a score=0 (normal tissue) through a score=4 (ulcerative tissue damage and marked pathological changes). Levels of circulating cytokines involved in inflammatory pathways were also assessed. The effect of GSNORi was compared to vehicle treated controls. The corticosteroid, prednisolone, was used as the positive control in this study and was administered daily at 3 mg/kg/day via oral dosing. Naïve mice (N=5) were also assessed as a normal tissue control.

Test [2] has the same test system. Kind of test: Acute prophylactic model of DSS-induced IBD. Format: in vivo, mouse. From the text: Acute and chronic models of dextran sodium sulfate (DSS)-induced IBD in mice were used to explore efficacy of GSNORi against this disease. Acute and chronic DSS-induced IBD are widely used and well characterized models that induce pathological changes in the colon similar to those observed in the human disease. In these models and in human disease, epithelial cells within the crypts of the colon are disrupted, leading to dysfunction of the epithelial barrier and the ensuing tissue inflammation, edema, and ulceration. GSNORi therapy may benefit IBD by restoring s-nitrosoglutathione (GSNO) levels, and thus prevent or reverse the epithelial barrier dysfunction. Experimental IBD was induced by administration of DSS in the drinking water of male C57B1/6 mice (N=8 to 10 mice per group) for 6 consecutive days. GSNORi was dosed orally at doses of 0.1 to 10 mg/kg/day for 10 days starting two days prior to and continuing two days post DSS exposure. Two days post DSS exposure, the effect of GSNORi was assessed in a blinded fashion via endoscopy and histopathology using a five point scale ranging from a score=0 (normal tissue) through a score=4 (ulcerative tissue damage and marked pathological changes). Levels of circulating cytokines involved in inflammatory pathways were also assessed. The effect of GSNORi was compared to vehicle treated controls. The corticosteroid, prednisolone, was used as the positive control in this study and was administered daily at 3 mg/kg/day via oral dosing. Naïve mice (N=5) were also assessed as a normal tissue control.

Test [3] concerns the target T1, GSNOR (Homo sapiens, UniProt P11766).
T1 construct: made in house; host or cells: E. coli
In words: GSNOR assay (inhibition of GSNOR activity, change in 340 nm absorbance). It counts as biochemical. The settings on record: 100 mM NaPO4 pH 7.4, 0.240 mM GSNO, 0.300 mM NADH, 0.5 μg/mL GSNO Reductase, 1% DMSO, 25° C. On the procedure: Various compounds were tested in vitro for their ability to inhibit GSNOR activity.
GSNOR expression and purification is described in Biochemistry 2000, 39, 10720-10729.
GSNOR Fermentation: Pre-cultures were grown from stabs of a GSNOR glycerol stock in 2XYT media containing 100 ug/ml ampicillin after an overnight incubation at 37° C. Cells were then added to fresh 2XYT (4 L) containing ampicillin and grown to an OD (A600) of 0.6-0.9 at 37° C. before induction. GSNOR expression was induced with 0.1% arabinose in an overnight incubation at 20° C.
GSNOR Purification: E. coli cell paste was lysed by nitrogen cavitation and the clarified lysate purified by Ni affinity chromatography on an AKTA FPLC (Amersham Pharmacia). The column was eluted in 20 mM Tris pH 8.0/250 mM NaCl with a 0-500 mM imidazole gradient. Eluted GSNOR fractions containing the Smt-GSNOR fusion were digested overnight with Ulp-1 at 4° C. to remove the affinity tag then re-run on the Ni column under the same conditions. GSNOR was recovered in the flowthrough fraction and for crystallography is further purified by Q-Sepharose and Heparin flowthrough chromatography in 20 mM Tris pH 8.0, 1 mM DTT, 10 uM ZnSO4.
GSNOR Assay: GSNO and enzyme/NADH Solutions are made up fresh each day. The solutions are filtered and allowed to warm to room temperature. GSNO solution: 100 mM NaPO4 (pH 7.4), 0.480 mM GSNO. 396 μL of GSNO Solution is added to a cuvette followed by 8 μL of test compound in DMSO (or DMSO only for full reaction control) and mixed with the pipette tip. Compounds to be tested are made up at a stock concentration of 10 mM in 100% DMSO. 2 fold serial dilutions are done in 100% DMSO. 8 μL of each dilution are added to an assay so that the final concentration of DMSO in the assay is 1%. The concentrations of compounds tested range from 100 to 0.003 μM. Enzyme/NADH solution: 100 mM NaPO4 (pH 7.4), 0.600 mM NADH, 1.0 μg/mL GSNO Reductase. 396 μL of the Enzyme/NADH solution is added to the cuvette to start the reaction. The cuvette is placed in the Cary 3E UV/Visible Spectrophotometer and the change in 340 nm absorbance/min at 25° C. is recorded for 3 minutes. The assays are done in triplicate for each compound concentration. IC50's for each compound are calculated using the standard curve analysis in the Enzyme Kinetics Module of SigmaPlot.
Final assay conditions: 100 mM NaPO4, pH 7.4, 0.240 mM GSNO, 0.300 mM NADH, 0.5 μg/mL GSNO Reductase, and 1% DMSO. Final volume: 800 μL/cuvette.

The mark [4] stands for this setting: chronic model, oral 10 mg/kg/day for up to 14 consecutive days, treatment dosing regimen.
[5] abbreviates: acute model, oral 1 mg/kg/day for 10 consecutive days, prophylactic dosing regimen.

T1 sequence (P11766 whole entry): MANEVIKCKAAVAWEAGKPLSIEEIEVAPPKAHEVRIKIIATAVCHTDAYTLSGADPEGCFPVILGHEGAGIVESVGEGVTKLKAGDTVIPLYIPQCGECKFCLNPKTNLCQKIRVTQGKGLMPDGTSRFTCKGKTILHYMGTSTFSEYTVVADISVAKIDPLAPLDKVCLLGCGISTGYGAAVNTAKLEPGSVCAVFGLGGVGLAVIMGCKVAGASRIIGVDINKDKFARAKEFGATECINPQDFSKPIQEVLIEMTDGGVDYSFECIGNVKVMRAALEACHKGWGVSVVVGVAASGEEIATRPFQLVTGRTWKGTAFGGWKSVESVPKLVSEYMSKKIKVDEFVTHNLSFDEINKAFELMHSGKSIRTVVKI

With `O=C(O)c1ccc(-c2ccc3cc(O)ccc3c2)c(Cl)c1` [Example 1, 3-chloro-4-(6-hydroxynaphthalen-2-yl)benzoic acid], the “colon injury (in words)” value in test [1] (chronic DSS-induced IBD) and in test [2] (acute DSS-induced IBD) was “attenuated colon injury” each time. Also, the entries for the “decrease of percent of mice presenting with severe colon injury scores via endoscopy, of vehicle control” value in test [1] (setting [4]) and in test [2] (setting [5]) were 50% and 17%, respectively. Moreover, the “decrease of percent of mice presenting with severe colon injury scores via histopathology, of vehicle control” value is 17% in test [1] (setting [4]) and 21% in test [2] (setting [5]). Moreover, in test [2] (acute model, oral 10 mg/kg/day for 10 days, p<0.05), the “decrease of percent of mice presenting with severe endoscopy scores, of vehicle control” value was 72%. The pIC50 – broadly, −log10 of the IC50, conventionally taken in molar units – in test [3] is above 7.30.
